# Assay results published in ChEMBL document CHEMBL4673225, “Highly Selective PTK2 Proteolysis Targeting Chimeras to Probe Focal Adhesion Kinase Scaffolding Functions” (J Med Chem, 2019).
# Active and inactive are the calls of the source. No cut-off for these calls is given here.
# What was measured:
# SNU-423 = test: cells; settings: Homo sapiens, SNU-423, 144 h, read-out: pIC50 (converted)
# Description: Antiproliferative activity against human SNU-423 cells incubated for 6 days by CellTiter-Glo luminescent cell viability assay
# Huh-7 = test: cells; settings: Homo sapiens, Huh-7, 144 h, read-out: pIC50 (converted)
# Description: Antiproliferative activity against human Huh-7 cells incubated for 6 days by CellTiter-Glo luminescent cell viability assay
# HLE = test: cells; settings: Homo sapiens, 144 h, read-out: pIC50 (converted)
# Description: Antiproliferative activity against human HLE cells incubated for 6 days by CellTiter-Glo luminescent cell viability assay
# HuCCT-1 = test: cells; settings: Homo sapiens, HuCCT-1, 144 h, read-out: pIC50 (converted)
# Description: Antiproliferative activity against human HuCCT-1 cells incubated for 6 days by CellTiter-Glo luminescent cell viability assay
# SNU-398 = test: cells; settings: Homo sapiens, SNU-398, 144 h, read-out: pIC50 (converted)
# Description: Antiproliferative activity against human SNU-398 cells incubated for 6 days by CellTiter-Glo luminescent cell viability assay
# cells [1] = settings: Homo sapiens, HLF1, 144 h, read-out: pIC50 (converted)
# Description: Antiproliferative activity against human HLF1 cells incubated for 6 days by CellTiter-Glo luminescent cell viability assay
# SK-HEP1 = test: cells; settings: Homo sapiens, SK-HEP1, 144 h, read-out: pIC50 (converted)
# Description: Antiproliferative activity against human SK-HEP1 cells incubated for 6 days by CellTiter-Glo luminescent cell viability assay
# HepG2 = test: cells; settings: Homo sapiens, HepG2, 144 h, read-out: pIC50 (converted)
# Description: Antiproliferative activity against human HepG2 cells incubated for 6 days by CellTiter-Glo luminescent cell viability assay
# cells [2] = settings: Homo sapiens, Hep3B, 144 h, read-out: pIC50 (converted)
# Description: Antiproliferative activity against human Hep3B2.1-7 cells incubated for 6 days by CellTiter-Glo luminescent cell viability assay
# cells [3] = settings: Homo sapiens, HuH-1, 144 h, read-out: pIC50 (converted)
# Description: Antiproliferative activity against human HuH-1 cells incubated for 6 days by CellTiter-Glo luminescent cell viability assay
# SNU-387 = test: cells; settings: Homo sapiens, SNU-387, 144 h, read-out: pIC50 (converted)
# Description: Antiproliferative activity against human SNU-387 cells incubated for 6 days by CellTiter-Glo luminescent cell viability assay
# [4] = target: von Hippel-Lindau disease tumor suppressor/Focal adhesion kinase 1 (Homo sapiens, UniProt Q05397+P40337); test: Protac activity at VHL/PTK2 in human A549 cells assessed as induction of PTK2 degradation at 1 to 100000 nM incubated for 18 hrs by protein capillary electrophoresis method; assay type: cell-based; settings: dose 1-100000 nM
# Chain of von Hippel-Lindau disease tumor suppressor/Focal adhesion kinase 1 (P40337 whole entry partner): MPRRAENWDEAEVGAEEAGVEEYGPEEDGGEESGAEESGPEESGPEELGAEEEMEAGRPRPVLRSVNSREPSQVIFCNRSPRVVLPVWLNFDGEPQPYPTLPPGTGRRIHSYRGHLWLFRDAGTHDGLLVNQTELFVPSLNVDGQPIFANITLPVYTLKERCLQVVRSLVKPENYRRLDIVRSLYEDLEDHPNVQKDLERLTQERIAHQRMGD
# Chain of von Hippel-Lindau disease tumor suppressor/Focal adhesion kinase 1 (Q05397 2-1052 limits assumed): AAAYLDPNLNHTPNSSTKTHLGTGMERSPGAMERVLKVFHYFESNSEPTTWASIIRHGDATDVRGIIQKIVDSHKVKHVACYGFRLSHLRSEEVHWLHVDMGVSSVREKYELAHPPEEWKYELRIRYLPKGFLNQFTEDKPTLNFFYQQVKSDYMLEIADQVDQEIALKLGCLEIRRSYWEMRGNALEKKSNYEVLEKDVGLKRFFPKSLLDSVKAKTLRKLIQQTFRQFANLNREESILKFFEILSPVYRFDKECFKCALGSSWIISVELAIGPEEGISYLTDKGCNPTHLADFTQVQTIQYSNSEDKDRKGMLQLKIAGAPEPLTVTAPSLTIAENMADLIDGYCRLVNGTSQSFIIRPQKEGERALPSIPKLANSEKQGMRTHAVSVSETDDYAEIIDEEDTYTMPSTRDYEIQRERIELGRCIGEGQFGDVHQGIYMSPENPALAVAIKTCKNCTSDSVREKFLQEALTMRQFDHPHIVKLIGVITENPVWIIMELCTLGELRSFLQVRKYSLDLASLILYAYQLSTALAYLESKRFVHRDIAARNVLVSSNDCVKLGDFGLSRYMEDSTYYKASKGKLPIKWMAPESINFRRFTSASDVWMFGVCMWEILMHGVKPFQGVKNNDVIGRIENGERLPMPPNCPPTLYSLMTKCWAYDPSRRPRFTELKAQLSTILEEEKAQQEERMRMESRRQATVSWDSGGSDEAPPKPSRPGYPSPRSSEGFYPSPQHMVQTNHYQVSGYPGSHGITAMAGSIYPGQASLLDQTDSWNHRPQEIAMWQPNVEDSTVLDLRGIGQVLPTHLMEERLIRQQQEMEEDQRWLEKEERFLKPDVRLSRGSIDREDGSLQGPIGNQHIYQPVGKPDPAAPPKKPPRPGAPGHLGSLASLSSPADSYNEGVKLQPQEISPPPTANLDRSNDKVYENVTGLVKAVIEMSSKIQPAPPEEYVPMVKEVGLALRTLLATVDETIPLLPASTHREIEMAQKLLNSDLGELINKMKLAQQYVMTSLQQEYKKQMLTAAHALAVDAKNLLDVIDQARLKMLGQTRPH
Compound,IC50 (SNU-423) [µM],IC50 (Huh-7) [µM],IC50 (HLE) [µM],IC50 (HuCCT-1) [µM],IC50 (SNU-398) [µM],IC50 (cells [1]) [µM],IC50 (SK-HEP1) [µM],IC50 (HepG2) [µM],IC50 (cells [2]) [µM],IC50 (cells [3]) [µM],IC50 (SNU-387) [µM],Activity [4]
COc1cc(C(=O)NC2CCN(C)CC2)ccc1Nc1ncc(C(F)(F)F)c(Oc2cccc3c2C(=O)CC3)n1,3.98,3.98,7.94,6.31,6.31,3.98,6.31,3.16,5.01,3.98,6.31,–
COc1cc(C(=O)NCCOCCOCCOCC(=O)N[C@H](C(=O)N2C[C@@H](O)C[C@H]2C(=O)NCc2ccc(-c3scnc3C)cc2)C(C)(C)C)ccc1Nc1ncc(C(F)(F)F)c(Oc2cccc3c2C(=O)CC3)n1,–,–,–,–,–,–,–,–,–,–,–,inactive
